We go through two compounds from PMC5736709, “Unravelling the specificity and mechanism of sialic acid recognition by the gut symbiont Ruminococcus gnavus” (Nature Communications, 2017).

pKd: −log10 of the molar value. “Also recorded” adds a separate entry of the source. A value given as a limit tells only on which side of the number the result lay.

For one test, the target named is T1, RgCBM40 Y116A (Mediterraneibacter gnavus (Ruminococcus gnavus), UniProt A7B557, Y116A).
T1 sequence (A7B557 50-237 Y116A): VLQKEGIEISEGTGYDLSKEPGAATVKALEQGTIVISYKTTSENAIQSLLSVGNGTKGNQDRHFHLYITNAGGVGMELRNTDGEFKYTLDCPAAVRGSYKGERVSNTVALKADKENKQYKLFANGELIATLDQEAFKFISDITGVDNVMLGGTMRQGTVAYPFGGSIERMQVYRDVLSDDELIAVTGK
Kind of test: ITC of sialoglycans binding to RgCBM40 mutant Y116A. More on the design: species or system Ruminococcus gnavus ATCC 29149. The conditions noted are these: for pKd: ITC. The procedure:
(§1) Site directed mutagenesis of RgGH33 to introduce the D282A mutation in the active site was carried out using the QuikChange kit, following the manufacturer’s instructions, Agilent (Santa Clara, CA, USA). Site-directed mutants of RgCBM40; I95A, Y116A, E126A, R128A, R204A and double mutant R128A/R204A, were obtained from NZyTech (Lisbon, Portugal). The primers are listed in Supplementary Table 4. The integrity of the RgGH33 and RgCBM40 mutants was checked by circular dichroism (CD).
(§2) Isothermal titration calorimetry (ITC) experiments were performed using the PEAQ-ITC system (Malvern, Malvern, UK) with a cell volume of 200 µl. Prior to titration protein samples were exhaustively dialysed into PBS. The ligand was dissolved in the dialysis buffer. The cell protein concentration was 115 µM (except for mutant I95A where it was 173 µM and the wild-type interaction with 6′SL where it was 230 µM) and the syringe ligand concentration was 10 mM (25 mM for Neu5Ac). Controls with titrant (sugar) injected into buffer only were subtracted from the data. Analysis was performed using Malvern software, using a single-binding site model. The stoichiometry of binding sites was set to 1.0 as this was evident from the crystal structure. Quantitative and most qualitative experiments were carried out in triplicate.

Test [1] has as its system RgCBM40 binding to LS174T MUC2. Kind of test: ELISA of RgCBM40 binding to LS174T MUC2 in competition with sugars. Also noted: species or system Ruminococcus gnavus ATCC 29149. The conditions noted are these: RgCBM40 preincubated with 1 mM free sugar overnight at 4 °C; immobilised LS174T MUC2; A450. The procedure: RgCBM40 binding to purified mucins was tested by ELISA. Mucins (100 μl of 10 μg ml^−1) were immobilised onto a high binding 96 well plate (Greiner, Stonehouse, UK) overnight at 4 °C. All subsequent steps were carried out for 1 h at room temperature. The plates were blocked with 3% (w/v) BSA, incubated with RgCBM40 (500 μg ml^−1), followed by an incubation with 1:5000 anti-RgNanH (raised in rabbit, Biogenes) then with 1:5000 anti-rabbit secondary antibody (raised in donkey) conjugated to peroxidase (GE Healthcare). Between each step, the plate was washed with 3 × 300 μl of PBS containing 0.05% (v/v) Tween 20 (PBST). Prior to detection, an additional wash step and 30 s incubation with PBST was carried out. Binding was detected using tetramethylbenzidine (TMB) visualisation solution (Biolegend, San Diego, CA, USA) which was incubated for 15 min. The reaction was stopped by addition of 2 M H2SO4 and absorbance measured at 450 nm using a plate-reader (Bench Marl Plus, Biorad), subtracting background readings at 570 nm. Negative controls including no RgCBM40 (subtracted from A450 value), no primary or no secondary antibody were carried out in parallel. For comparison between plates, values were normalised to the reading for LS174T MUC2 which was arbitrarily set at 100%. For enzymatic treatment of the mucin, LS174T MUC2 (2 mg ml^−1) was incubated with sialidases (2 µg ml^−1) overnight at 4 °C on a rotary wheel prior to immobilisation on the plate. For chemical treatment of mucin, LS174T MUC2 was incubated with 0.1 M trifluoroacetic acid (TFA) at 80 °C for 1 h, dialysed against ammonium bicarbonate (50 mM), lyophilised and redissolved in H2O. For the competition assays, RgCBM40 was incubated with 1 mM of free sugar overnight at 4 °C on a rotary wheel prior to addition to the ELISA plate as above. Experiments were carried out in triplicate.
On the technique in general: ELISA stands for enzyme-linked immunosorbent assay.

The next test has as its target RgCBM40 (Mediterraneibacter gnavus (Ruminococcus gnavus), UniProt A7B557). Description: STD NMR of sialoglycans with RgCBM40 WT. Also noted: species or system Ruminococcus gnavus ATCC 29149. Particulars: 1 mM sialoglycan, 50 μM RgCBM40 WT, 288 K; 'exception' = monosaccharides for which binding was not detected. The protocol:
(§3) ^1H and ^13C resonance assignment for all the sugars was performed on the bases of 1D ^1H, 2D DQF-COSY, TOCSY, HSQC and NOESY experiments run on the free ligands in unbuffered D2O, pH 7.0. For STD NMR experiments, all the samples consisted of 1 mM sialoglycans and 50 μM RgCBM40 (WT or I95A mutant) in D2O buffer solution of 10 mM Tris-d11 pH 7.8 and 100 mM NaCl (ligand: protein ratio 20:1). An STD pulse sequence that included 2.5 ms and 5 ms trim pulses and a 3 ms spoil gradient was used. Saturation was achieved applying a train of 50 ms Gaussian pulses (0.40 mW) on the f2 channel, at 0.60 p.p.m. (on-resonance experiments) and 40 p.p.m. (off-resonance experiments). The broad protein signals were removed using a 40 ms spinlock (T1ρ) filter. All the experiments were recorded at ^1H frequency of 800.23 MHz on a Bruker Avance III spectrometer equipped with a 5 mm probe TXI 800 MHz H-C/N-D-05 Z BTO, at 288 K. For all the sialoglycans in the presence of RgCBM40, an STD experiment with a saturation time of 2 s and a relaxation delay of 5 s was performed, as a first test for binding. For the confirmed binders, the STD NMR experiments were carried out at different saturation times (0.5, 1, 2, 3, 4 and 5 s) with 1 K scans and relaxation delay of 5 s, in order to obtain the binding epitope mapping. The resulting build-up curves for each proton were fitted mathematically to a mono-exponential equation (y = a×[1-exp(b×x)]), from which the initial slopes (a×b) were obtained. For each ligand, the binding epitope mapping was obtained by dividing the initial slopes by the one of the H7 proton of the corresponding sialic acid ring, to which an arbitrary value of 100% was assigned. This normalisation of the STD values allows the comparison across all the sialoglycans.

The target of the next test is T2, RgCBM40 I95A (Mediterraneibacter gnavus (Ruminococcus gnavus), UniProt A7B557, I95A).
T2 sequence (A7B557 50-237 I95A): T1 sequence (A7B557 50-237 Y116A)
Description: STD NMR of sialoglycans with RgCBM40 I95A mutant. In kind it is binding, Ruminococcus gnavus ATCC 29149. The conditions noted are these: 1 mM sialoglycan, 50 μM RgCBM40 I95A. The procedure:
as §3, with “The resulting build-up curves for each proton were fitted mathematically to a mono-exponential equation (y = a×[1-exp(b×x)]), from which the initial slopes (a×b) were obtained. For each ligand, the binding epitope mapping was obtained by dividing the initial slopes by the one of the H7 proton of the corresponding sialic acid ring, to which an arbitrary value of 100% was assigned. This normalisation of the STD values allows the comparison across all the sialoglycans.” left out

For a further test, the target named is T3, RgCBM40 Y210A (Mediterraneibacter gnavus (Ruminococcus gnavus), UniProt A7B557, Y210A).
T3 sequence (A7B557 50-237 Y210A): T1 sequence (A7B557 50-237 Y116A)
Description: ITC of sialoglycans binding to RgCBM40 mutant Y210A. Also noted: species or system Ruminococcus gnavus ATCC 29149. The conditions noted are these: for pKd: ITC. The procedure: as §2

The target in a further test is T4, RgCBM40 R204A (Mediterraneibacter gnavus (Ruminococcus gnavus), UniProt A7B557, R204A).
T4 sequence (A7B557 50-237 R204A): T1 sequence (A7B557 50-237 Y116A)
Kind of test: ITC of sialoglycans binding to RgCBM40 mutant R204A. Also noted: species or system Ruminococcus gnavus ATCC 29149. Particulars: for pKd: ITC. The procedure:
as §1, §2

On to `CC(=O)N[C@H]1[C@H]([C@H](O)[C@H](O)CO)O[C@@](O[C@H]2[C@@H](O)[C@@H](CO)O[C@@H](O[C@H]3[C@H](O)[C@@H](O)C(O)O[C@@H]3CO)[C@@H]2O)(C(=O)O)C[C@@H]1O` (stereo partly drawn) [3′SL, α2-3 sialyllactose], for which the “Binding by ITC (in words)” value on RgCBM40 Y116A is given as “abolished”; at RgCBM40 Y210A, “abolished”; at RgCBM40 R204A, “abolished; also recorded: loss of binding”. Also, the pKd on RgCBM40 Y116A, on RgCBM40 Y210A and at RgCBM40 R204A was less than 1.60 each time. In test [1], the “Effect of free sugar on adherence of RgCBM40 to MUC2” value is “significantly decreased”. In addition, the “Binding to RgCBM40 detected by STD NMR” value on RgCBM40 was “detected”. Moreover, on RgCBM40 I95A, the “Binding to I95A by STD-NMR” value is recorded as “confirmed”.
On to `CC(=O)N[C@H]1[C@H]([C@H](O)[C@H](O)CO)O[C@@](OC[C@H]2O[C@@H](O[C@H]3[C@H](O)[C@@H](O)C(O)O[C@@H]3CO)[C@H](O)[C@@H](O)[C@H]2O)(C(=O)O)C[C@@H]1O` (stereo partly drawn) [6′SL, α2,6-sialyllactose], for which the “Binding by ITC (in words)” value at RgCBM40 Y116A, on RgCBM40 Y210A and on RgCBM40 R204A was “abolished” in each case. Besides, the pKd on RgCBM40 Y116A, on RgCBM40 Y210A and at RgCBM40 R204A was less than 1.60 each time. Also, the “Effect of free sugar on adherence of RgCBM40 to MUC2” value in test [1] is listed as “significantly decreased”. Further, on RgCBM40, the “Binding to RgCBM40 detected by STD NMR” value is “detected”. Besides, the “Binding to I95A by STD-NMR” value on RgCBM40 I95A is reported as “confirmed”.

By pKd is commonly meant the Kd on a negative log10 scale, so that one unit is a factor of ten. High values mean a small Kd, low ones a large Kd.
